Activity calls are given as the source filed them.
Key:
cells [1] = type: functional, cell-based
cells [2] = type: functional, cell-based; remark: listed apart in the source
P388 = experiment: cells; type: functional; conditions: Mus musculus;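 note: compound exposure lasted 48 hours before growth was measured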
SN12K1 = experiment: cells; type: functional; conditions: Homo sapiens
INS1 = experiment: INS-1E survival protection against cytokine death – cell-based, luminescence, retest, dose response (AID 449756); type: functional; conditions: Rattus norvegicus;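 note: cell death triggered by IL-1 beta plus TNF-alpha plus IFN-gamma mixture; protective hits raise ATP signal compared with cytokine alone wells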
[3] = target: T1, Ubiquitin-conjugating enzyme E2 N (Homo sapiens, UniProt P61088); type: functional;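 note: Dose-response confirmation in a TR-FRET assay detecting UBC13-driven polyubiquitin chain formation, inhibition measured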
T1 sequence (P61088 whole entry): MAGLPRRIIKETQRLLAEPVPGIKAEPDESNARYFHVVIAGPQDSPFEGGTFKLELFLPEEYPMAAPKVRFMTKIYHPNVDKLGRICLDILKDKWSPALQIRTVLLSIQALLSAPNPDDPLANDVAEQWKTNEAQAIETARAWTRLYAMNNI

[4] = reduction of Shn3 3'UTR-driven luciferase in osteoblasts – cell-based, Clone20 osteoblasts, firefly luciferase, cherry-picked, dose response (AID 624132); type: functional;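 note: firefly luciferase luminescence from reporter carrying the Shn3 3'UTR in osteoblasts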
[5] = non-specific 3'UTR reporter inhibition in Clone20-Shn3RL – cell-based, Renilla luciferase, cherry-picked, counter-screen for Shn3 inhibitor project, dose response (AID 624133); type: functional
Paired box protein Pax-8 = Paired box protein Pax-8 (Homo sapiens, UniProt Q06710); experiment: PAX8 transcriptional activity inhibition in RMG-I – RMG-I cells, luciferase, cherry-pick, dose response (AID 687027); type: functional, cell-based;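 note: luciferase reporter driven by Pax8 target thyroperoxidase promoter measured by SteadyGlo luminescence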
Paired box protein Pax-8, sequence (Q06710 whole entry): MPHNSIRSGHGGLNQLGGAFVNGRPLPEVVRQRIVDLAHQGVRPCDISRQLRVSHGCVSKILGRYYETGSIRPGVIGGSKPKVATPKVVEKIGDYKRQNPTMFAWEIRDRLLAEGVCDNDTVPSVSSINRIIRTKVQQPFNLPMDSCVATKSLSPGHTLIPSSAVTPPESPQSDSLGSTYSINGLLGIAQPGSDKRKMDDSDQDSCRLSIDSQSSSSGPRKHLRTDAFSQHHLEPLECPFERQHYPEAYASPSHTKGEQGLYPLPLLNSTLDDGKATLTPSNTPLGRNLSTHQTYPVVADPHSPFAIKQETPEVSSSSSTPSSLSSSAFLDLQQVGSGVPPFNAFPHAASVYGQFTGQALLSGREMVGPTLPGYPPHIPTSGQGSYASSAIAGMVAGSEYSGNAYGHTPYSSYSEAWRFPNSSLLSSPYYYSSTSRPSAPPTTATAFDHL

Protein RecA = target: T2, Protein RecA (Mycobacterium tuberculosis, UniProt P9WHJ3); experiment: Fluorescence Cell-Free Homogeneous Dose Retest to Identify Inhibitors of RecA-Intein Splicing Activity. [Related pubchem assays (depositor defined):AID2097, AID2223, AID489010, AID492950]; type: functional
T2 sequence (P9WHJ3 whole entry): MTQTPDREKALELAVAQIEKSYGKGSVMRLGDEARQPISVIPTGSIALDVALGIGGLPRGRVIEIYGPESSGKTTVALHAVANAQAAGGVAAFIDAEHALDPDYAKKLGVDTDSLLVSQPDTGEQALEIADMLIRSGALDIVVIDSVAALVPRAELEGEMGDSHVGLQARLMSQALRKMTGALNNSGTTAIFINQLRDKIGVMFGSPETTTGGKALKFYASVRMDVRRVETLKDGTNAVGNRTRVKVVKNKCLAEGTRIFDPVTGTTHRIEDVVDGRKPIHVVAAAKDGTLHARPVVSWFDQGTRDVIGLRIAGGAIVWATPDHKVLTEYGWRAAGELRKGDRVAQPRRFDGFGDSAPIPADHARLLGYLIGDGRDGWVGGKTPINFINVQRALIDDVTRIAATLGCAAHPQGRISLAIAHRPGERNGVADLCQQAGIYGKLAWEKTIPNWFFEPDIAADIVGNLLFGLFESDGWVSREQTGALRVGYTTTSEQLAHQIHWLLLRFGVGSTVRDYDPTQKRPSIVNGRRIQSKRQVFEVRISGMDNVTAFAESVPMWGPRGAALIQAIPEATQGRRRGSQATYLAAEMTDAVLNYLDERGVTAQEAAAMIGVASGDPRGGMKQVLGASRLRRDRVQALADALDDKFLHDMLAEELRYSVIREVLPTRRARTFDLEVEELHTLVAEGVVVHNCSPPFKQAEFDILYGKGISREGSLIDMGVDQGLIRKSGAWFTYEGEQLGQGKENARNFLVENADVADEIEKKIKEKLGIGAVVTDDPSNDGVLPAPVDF

[6] = viability of HCT116 lacking mutant beta-catenin – cell-based, human colon tumor, dose response (AID 1045); type: functional;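 note: HCT116 colon tumor cells with beta catenin knocked out; cells exposed to compound for 60 hours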
[7] = viability of PTEN-deleted HCT116 cells – cell-based, HCT116 PTEN knockout, dose response (AID 1047); type: functional;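 note: HCT116 colon tumor cells with PTEN knocked out; cells exposed to compound for 60 hours before readout; potency for loss of cell viability measured by luminescence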
[8] = target: T3, Heat shock factor protein 1 (Mus musculus, UniProt P38532); experiment: enhancement of HSF1-driven luciferase signal – cell-based, NIH3T3, luminescence, dose retest, confirmation (AID 435004); type: functional;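 note: stress induced by proteasome inhibitor MG132 added 30 min after compound; luciferase reporter driven by HSF1 response element in NIH3T3 cells; actives raise luminescence as potentiators of the MG132 stress response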
T3 sequence (P38532 whole entry): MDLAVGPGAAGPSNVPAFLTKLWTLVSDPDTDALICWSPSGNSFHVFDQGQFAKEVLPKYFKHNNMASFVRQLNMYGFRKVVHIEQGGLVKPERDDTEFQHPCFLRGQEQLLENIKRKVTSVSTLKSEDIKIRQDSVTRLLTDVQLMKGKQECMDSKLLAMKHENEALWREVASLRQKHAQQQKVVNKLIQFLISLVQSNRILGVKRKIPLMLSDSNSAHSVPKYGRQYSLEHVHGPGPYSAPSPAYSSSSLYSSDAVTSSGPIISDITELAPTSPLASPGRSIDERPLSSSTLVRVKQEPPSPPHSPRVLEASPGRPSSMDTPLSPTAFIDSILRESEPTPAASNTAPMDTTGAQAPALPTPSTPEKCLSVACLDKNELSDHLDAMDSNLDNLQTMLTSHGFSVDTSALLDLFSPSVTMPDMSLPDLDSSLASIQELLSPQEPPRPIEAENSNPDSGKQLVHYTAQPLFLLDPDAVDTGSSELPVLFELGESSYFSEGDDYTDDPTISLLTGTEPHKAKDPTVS

[9] = target: T4, Replicative DNA helicase DnaB (Mycobacterium tuberculosis, UniProt P9WMR3); experiment: DnaB intein splicing inhibitors, dose response, biochemical, cell-free fluorescence (AID 449749); type: functional
T4 sequence (P9WMR3 whole entry): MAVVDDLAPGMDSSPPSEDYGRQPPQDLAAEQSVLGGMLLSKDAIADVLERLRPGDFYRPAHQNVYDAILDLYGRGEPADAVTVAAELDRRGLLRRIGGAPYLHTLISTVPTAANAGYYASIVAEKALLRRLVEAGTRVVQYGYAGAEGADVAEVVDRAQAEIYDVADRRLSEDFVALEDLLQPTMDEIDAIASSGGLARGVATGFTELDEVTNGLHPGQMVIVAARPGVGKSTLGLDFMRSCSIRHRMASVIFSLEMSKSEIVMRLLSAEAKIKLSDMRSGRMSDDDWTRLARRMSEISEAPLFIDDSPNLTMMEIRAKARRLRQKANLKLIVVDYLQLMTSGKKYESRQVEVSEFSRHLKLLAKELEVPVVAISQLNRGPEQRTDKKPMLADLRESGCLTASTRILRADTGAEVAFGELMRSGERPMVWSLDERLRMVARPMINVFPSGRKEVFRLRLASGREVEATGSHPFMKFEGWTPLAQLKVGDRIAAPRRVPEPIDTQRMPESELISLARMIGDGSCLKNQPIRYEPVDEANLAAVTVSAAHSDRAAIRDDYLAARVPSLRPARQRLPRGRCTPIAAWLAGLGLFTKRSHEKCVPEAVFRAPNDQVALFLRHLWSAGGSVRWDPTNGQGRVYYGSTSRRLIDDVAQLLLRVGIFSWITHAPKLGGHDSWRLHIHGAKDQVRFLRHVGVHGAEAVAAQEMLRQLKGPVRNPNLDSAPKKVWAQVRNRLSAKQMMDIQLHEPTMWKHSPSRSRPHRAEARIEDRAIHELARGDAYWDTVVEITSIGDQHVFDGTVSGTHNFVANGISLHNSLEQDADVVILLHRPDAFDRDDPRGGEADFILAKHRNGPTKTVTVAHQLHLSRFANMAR

[10] = NIH3T3 cell viability loss – ATP luminescence, mouse fibroblasts, counter-screen, dose response (AID 2010); type: functional, cell-based;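 note: cells exposed to compound for about 90 hours before reading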
[11] = fluconazole-exposed Candida albicans growth modulators – fluorescence, retest, confirmation (AID 2467); type: functional, cell-based
[12] = target: Heat shock protein HSP 90-alpha (Homo sapiens, UniProt P07900); type: functional, organism-based
[13] = Trypanosoma cruzi growth suppression in host cells – NIH3T3 host cells, beta-gal luminescence, confirmation (AID 2044); type: functional, cell-based;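 note: intracellular parasites grown in NIH/3T3 mouse fibroblasts as host cells; luminescent beta-galactosidase reporter signal from transgenic T. cruzi replicating inside host cells; inhibitors lower the luminescence signal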
[14] = NIH-3T3 fibroblast cytotoxicity, dose response, cytotoxicity control, cell-based, fluorescence, Alamar Blue, secondary assay (AID 2327); type: functional;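 note: NIH-3T3 mouse fibroblasts cultured with fluconazole at 8 µg/mL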
Fatty acid synthase = Fatty acid synthase (Homo sapiens, UniProt P49327); experiment: inhibition of human FAS-TE enzyme activity – biochemical, kinetic fluorescence intensity, dose response (AID 624326); type: functional;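 note: rate of fluorescence rise from hydrolysis of a fluorogenic O-methyl fluorescein ester substrate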
Fatty acid synthase, sequence (P49327 whole entry): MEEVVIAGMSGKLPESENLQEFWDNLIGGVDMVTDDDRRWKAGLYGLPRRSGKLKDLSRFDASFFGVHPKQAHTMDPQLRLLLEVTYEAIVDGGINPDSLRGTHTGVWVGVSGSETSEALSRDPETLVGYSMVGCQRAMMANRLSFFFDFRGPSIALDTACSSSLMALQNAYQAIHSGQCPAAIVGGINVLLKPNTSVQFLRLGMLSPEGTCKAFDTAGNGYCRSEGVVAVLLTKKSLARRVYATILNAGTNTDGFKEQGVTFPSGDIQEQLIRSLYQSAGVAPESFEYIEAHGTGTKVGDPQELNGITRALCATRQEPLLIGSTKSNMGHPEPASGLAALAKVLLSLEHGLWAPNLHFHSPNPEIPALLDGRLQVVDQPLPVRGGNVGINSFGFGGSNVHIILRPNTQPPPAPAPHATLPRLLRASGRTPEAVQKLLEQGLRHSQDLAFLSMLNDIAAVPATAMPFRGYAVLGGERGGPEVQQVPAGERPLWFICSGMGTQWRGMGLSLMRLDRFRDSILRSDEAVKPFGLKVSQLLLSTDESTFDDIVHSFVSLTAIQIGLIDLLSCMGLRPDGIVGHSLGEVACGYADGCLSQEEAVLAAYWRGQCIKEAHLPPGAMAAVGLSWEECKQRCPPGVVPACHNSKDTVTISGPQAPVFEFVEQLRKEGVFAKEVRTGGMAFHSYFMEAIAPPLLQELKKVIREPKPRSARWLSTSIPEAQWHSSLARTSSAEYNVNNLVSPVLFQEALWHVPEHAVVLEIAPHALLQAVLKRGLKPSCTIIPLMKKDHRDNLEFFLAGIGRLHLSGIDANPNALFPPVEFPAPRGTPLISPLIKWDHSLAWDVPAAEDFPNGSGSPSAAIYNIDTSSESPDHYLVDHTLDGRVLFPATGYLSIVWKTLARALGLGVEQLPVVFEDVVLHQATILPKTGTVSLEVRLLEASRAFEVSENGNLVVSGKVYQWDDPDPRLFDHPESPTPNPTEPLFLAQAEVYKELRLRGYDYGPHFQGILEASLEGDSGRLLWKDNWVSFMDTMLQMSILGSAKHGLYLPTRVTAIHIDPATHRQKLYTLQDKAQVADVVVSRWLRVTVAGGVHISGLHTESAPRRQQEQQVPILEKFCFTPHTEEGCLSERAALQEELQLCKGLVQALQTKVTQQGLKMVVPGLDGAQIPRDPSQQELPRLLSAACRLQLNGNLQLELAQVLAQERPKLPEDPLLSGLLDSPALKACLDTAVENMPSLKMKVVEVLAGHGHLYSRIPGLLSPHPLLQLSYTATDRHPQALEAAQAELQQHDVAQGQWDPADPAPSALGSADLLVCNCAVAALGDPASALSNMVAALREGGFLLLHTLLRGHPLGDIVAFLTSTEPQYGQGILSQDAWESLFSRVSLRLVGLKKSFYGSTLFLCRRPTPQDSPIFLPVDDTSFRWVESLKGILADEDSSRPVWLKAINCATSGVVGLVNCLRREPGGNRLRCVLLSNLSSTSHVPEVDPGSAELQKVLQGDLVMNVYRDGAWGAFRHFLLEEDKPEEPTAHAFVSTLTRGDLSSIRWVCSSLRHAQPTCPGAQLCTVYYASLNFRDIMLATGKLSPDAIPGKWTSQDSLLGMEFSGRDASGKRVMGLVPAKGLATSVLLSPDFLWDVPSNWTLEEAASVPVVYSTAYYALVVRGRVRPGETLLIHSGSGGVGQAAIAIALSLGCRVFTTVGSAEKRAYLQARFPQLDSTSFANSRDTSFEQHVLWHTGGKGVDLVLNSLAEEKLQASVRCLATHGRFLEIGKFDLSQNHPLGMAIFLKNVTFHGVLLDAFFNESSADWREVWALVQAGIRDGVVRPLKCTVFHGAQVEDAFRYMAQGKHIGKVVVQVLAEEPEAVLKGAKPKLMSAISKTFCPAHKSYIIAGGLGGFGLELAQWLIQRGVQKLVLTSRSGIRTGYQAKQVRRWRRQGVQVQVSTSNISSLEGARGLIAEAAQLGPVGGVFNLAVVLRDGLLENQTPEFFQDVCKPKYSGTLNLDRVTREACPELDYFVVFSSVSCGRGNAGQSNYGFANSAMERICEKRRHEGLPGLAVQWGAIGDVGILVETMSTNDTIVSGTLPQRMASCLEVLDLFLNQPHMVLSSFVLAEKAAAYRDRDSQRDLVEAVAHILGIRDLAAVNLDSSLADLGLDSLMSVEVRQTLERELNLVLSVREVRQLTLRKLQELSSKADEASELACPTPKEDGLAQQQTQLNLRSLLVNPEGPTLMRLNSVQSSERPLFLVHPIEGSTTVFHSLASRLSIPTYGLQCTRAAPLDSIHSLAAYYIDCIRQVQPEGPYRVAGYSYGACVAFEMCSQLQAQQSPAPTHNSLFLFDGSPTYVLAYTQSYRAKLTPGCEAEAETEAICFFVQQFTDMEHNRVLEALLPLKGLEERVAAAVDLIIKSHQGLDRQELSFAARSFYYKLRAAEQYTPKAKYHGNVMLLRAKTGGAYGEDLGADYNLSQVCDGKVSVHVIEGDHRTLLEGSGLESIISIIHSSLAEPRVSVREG

[15] = Luminescence Cell-Based Dose Retest to Confirm Inhibitors of Cancer Stem Cells. [Related pubchem assays (depositor defined):AID2717, AID2721]; type: functional; conditions: Homo sapiens
[16] = target: T5, Microphthalmia-associated transcription factor (Homo sapiens, UniProt O75030); experiment: reducers of TRPM1 reporter luminescence, concentration series – cell-based, SK-MEL-5, cherry-picked, set 3, MITF inhibitor project, dose response (AID 493073); type: functional;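 note: SK-MEL-5 melanoma cells with luciferase driven by the MITF target TRPM1 promoter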
T5 sequence (O75030 whole entry): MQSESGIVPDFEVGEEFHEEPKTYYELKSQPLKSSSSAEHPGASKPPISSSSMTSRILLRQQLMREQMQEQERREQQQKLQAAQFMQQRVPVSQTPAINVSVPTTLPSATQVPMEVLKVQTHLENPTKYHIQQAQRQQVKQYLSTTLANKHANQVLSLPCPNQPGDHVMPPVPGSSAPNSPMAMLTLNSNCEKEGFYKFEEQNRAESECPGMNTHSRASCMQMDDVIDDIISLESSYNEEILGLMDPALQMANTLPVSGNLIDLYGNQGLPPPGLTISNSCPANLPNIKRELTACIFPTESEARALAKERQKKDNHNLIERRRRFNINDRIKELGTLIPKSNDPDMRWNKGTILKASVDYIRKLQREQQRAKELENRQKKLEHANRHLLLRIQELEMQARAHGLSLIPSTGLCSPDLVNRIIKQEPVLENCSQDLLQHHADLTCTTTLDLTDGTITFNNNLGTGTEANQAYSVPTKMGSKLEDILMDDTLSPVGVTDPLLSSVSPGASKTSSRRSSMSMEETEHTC

[17] = HIV-1 AD8 envelope cell-cell fusion blockers – cherry-pick, dose response (AID 652062); type: functional, cell-based;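 note: luciferase signal from cell-cell fusion driven by HIV-1 clade B AD8 Env; potency is for inhibitors of fusion seen as a drop in luminescence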
[18] = blockers of HIV-1 envelope-mediated cell-cell fusion – cherry-pick, dose response (AID 652057); type: functional, cell-based
[19] = off-target signal loss in HeLa-CEM21 co-culture – HeLa F-luc CTL cells, cherry-picked, counter-screen for HIV-1 Env fusion inhibitor project, dose response (AID 652040); type: functional, cell-based;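 note: potency for signal decrease marking cytotoxic or nonspecific inhibition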
[20] = blockers of HIV-1 ZM109 envelope-driven cell-cell fusion – HeLa effector, CEM target cells, luciferase, cherry-pick, dose response (AID 652058); type: functional, cell-based;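 note: luciferase signal from HIV-1 Env mediated cell-cell fusion of effector and target cells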

CC(=O)Nc1cc2c(cc1Br)OCCO2
EC50 (cells [1]): > 350 µM (not active)
EC50 (cells [2]): > 350 µM (not active)

Nc1c(/N=N/c2ccc(-c3ccc(/N=N/c4c(O)ccc5cc(S(=O)(=O)O)cc(S(=O)(=O)O)c45)cc3)cc2)c(S(=O)(=O)O)cc2cc(S(=O)(=O)O)c(/N=N/c3ccccc3)c(O)c12
GI50 (P388): > 100 µM (inactive)
GI50 (SN12K1): > 100 µM (inactive)

N/C(S)=N/N=C/c1ccc(O)cn1
GI50 (P388): 1.95 µM (inactive)
GI50 (SN12K1): 3.61 µM (inactive)

CC(C)OCCCN=C(S)N1CCC(C(=O)c2ccc(Cl)cc2)CC1
AC50 (INS1): 36.9 µM (active)

CC(C(=O)NC1CCCC1)N(C(=O)c1snc(C(N)=O)c1N)c1ccc2c(c1)OCCO2 (stereo not drawn)
IC50 [3]: > 20 µM (inactive)

NC(S)=Nc1nc2ccccc2nc1O
IC50 [3]: > 20 µM (inactive)

COC(=O)c1ccccc1S(=O)(=O)N1CCC(C(=O)N2CCC2)CC1
IC50 [3]: > 20 µM (inactive)

COC(=O)C1=C(c2ccc(F)cc2OCc2ccccc2)C[C@@H]2CC[C@H]1N2C(=O)NC1Cc2ccccc2C1
AC50 [4]: 8 µM (active)
AC50 [5]: 29.3 µM (active)
AC50 (Paired box protein Pax-8): 9.27 µM (active)

CC[C@@H](C)[C@@H]1CN([C@@H](C)CN2CCC[C@H]2CN2C(N)=NC[C@@H]2Cc2ccccc2)C(=N)N1CCc1ccc(Cl)c(Cl)c1
IC50 [3]: > 20 µM (inactive)

COc1ccc(C)c2sc(N(CCCN(C)C)C(=O)c3ccc(S(=O)(=O)N(C)C)cc3)nc12
IC50 [3]: > 20 µM (inactive)

Cc1cc(C(=O)c2ccc(C(C)(C)C)cc2)c(NC(=O)CCl)s1
EC50 (Protein RecA): 2.97 µM (active)
EC50 [6]: 8.47 µM (active)
EC50 [7]: 9.12 µM (active)
EC50 [8]: 7.73 µM (active)
AC50 [9]: 7.58 µM (active)

O=C(Nc1nc(-c2ccccn2)cs1)c1cc2ccccc2o1
EC50 [10]: 9.05 µM (active)
EC50 [11]: 1.49 µM (active)
AC50 [12]: 4.49 µM (active)
EC50 [13]: 1.46 µM (active)
EC50 [14]: 20.5 µM (active)

O=C(COc1ccccc1)Nc1nc(-c2ccc(S(=O)(=O)N3CCOCC3)cc2)cs1
IC50 (Fatty acid synthase): 0.489 µM (active)

Cc1ccc2nc(-c3cccc(NS(C)(=O)=O)c3)cc(-c3ccccc3)c2c1
AC50 [12]: 4.75 µM (active)
AC50 [15]: 4.13 µM (active)

COc1ccc(NC(=O)CCC(=O)N/N=C/c2ccc([N+](=O)[O-])s2)cc1
EC50 [6]: 11.3 µM (active)
AC50 [12]: 2.7 µM (active)
EC50 [7]: 11.5 µM (active)
AC50 [16]: 7.62 µM (active)

O=S(=O)(NC1CC2CCC1C2)c1ccc(Cl)cc1 (stereo not drawn)
AC50 [12]: 0.538 µM (active)

COc1ccc(CCNc2ccc(C(CC(N)=O)NC(=O)c3ccc(Br)cc3)cc2[N+](=O)[O-])cc1 (stereo not drawn)
AC50 (INS1): 12.9 µM (active)
AC50 [15]: 5.51 µM (active)

CCOC(=O)c1cccc(NS(=O)(=O)c2ccc(NC(C)=O)cc2)c1
AC50 [17]: 10 µM (active)
AC50 [18]: 4.26 µM (active)
AC50 [19]: 39.7 µM (active)

COC(=O)c1cc(=O)n(CCc2ccccc2F)/c(=N/c2ccc(F)c(Cl)c2)s1
AC50 (INS1): 8.13 µM (active)

CN(C)C(=O)CSc1nc2ccccc2n1Cc1ccccc1
EC50 (cells [1]): > 350 µM (not active)
EC50 (cells [2]): > 350 µM (not active)

COc1ccc2[nH]c(-c3cccc(N)c3)nc2c1
EC50 (cells [1]): 6.92 µM (active)
EC50 (cells [2]): > 350 µM (not active)

CC(C)CCSc1nc(N)c(C#N)cc1C#N
AC50 [17]: 25.6 µM (active)
EC50 [10]: > 60 µM (not active)
AC50 [18]: 26.2 µM (active)
AC50 [19]: 23.4 µM (active)
EC50 [13]: 0.542 µM (active)
AC50 [20]: 32.3 µM (active)

O=C(O)/C=C/c1cnn(-c2ccccc2)c1
EC50 (cells [1]): 2.39 µM (active)
EC50 (cells [2]): > 350 µM (not active)

CCOc1ccc(C(=O)NC(=S)Nc2cccc(NC(=O)c3ccco3)c2)cc1[N+](=O)[O-]
EC50 (cells [1]): > 350 µM (not active)
EC50 (cells [2]): > 350 µM (not active)

— ChEMBL document CHEMBL1201862, “PubChem BioAssay data set” (2004)
